Reference: patent US20240319207A1, “METHOD FOR IDENTIFYING T-CELL EPITOPE SEQUENCE, AND APPLICATION OF SAME” (priority 2021, published 2024)

Assays:
T cells = conditions: peptide sequence including the TREM sequence (from TCRβ repertoire, Table 12 no) activates T cells to induce interferon-γ; cited from earlier work
[1] = test system: human peripheral blood monocyte cells, second type (HLA-DRB1*13:01, 14:06); assay: ELISPOT assay for interleukin-4, cell 2; assay type: cell-based; conditions: 4×10^5 cells per well, peptide 10 μg/ml, 48 hours, after 13 days culture with peptide 1 μg/ml and IL-2
Protocol: (§1) There was performed an assay for specifying a peptide that could actually be an antigen from the peptide candidate list obtained up to Example 8. In this example, it was confirmed whether the sequence of the peptide obtained as described above could function as a T cell epitope. Of the 12 highly versatile epitope candidates obtained above, 8 epitope candidates were subjected to an assay using peptides.
(§2) Human peripheral blood monocyte cells carrying HLA types and showing high binding affinity with 8 peptide sequences in Example 8 were used. Specifically, human peripheral blood monocyte cells carrying the following 2 types of HLA types were purchased from Lonza K.K. (Tokyo, Japan) and used. The HLA types of the first type of human peripheral blood monocyte cells used were HLA-DPA1*01:03, 02:02, HLA-DPB1*04:01, 05:01, HLA-DQA1*01:02, 02:01, HLA-DQB1*03:03, 05:02, and HLA-DRB1*07:01, 15:02. The HLA types of the second type of human peripheral blood monocyte cells were HLA-DPA1*01:03, HLA-DPB1*04:01, 04:02, HLA-DOA1*01:03, 05:05, HLA-DOB1*03:01, 06:03, and HLA-DRB1*13:01,14:06.
(§3) Cells were cultured in the following manner. […]
(§4) ELISPOT assays for interferon-γ and interleukin-4 were conducted. […] The number of spots of the color-developed plate was measured by a contract analysis service of M&S TechnoSystems, Inc. (Osaka, Japan).

[2] = test system: human peripheral blood monocyte cells, first type (HLA-DRB1*07:01, 15:02); assay: ELISPOT assay for interleukin-4, cell 1; assay type: cell-based; conditions: 4×10^5 cells per well, peptide 10 μg/ml, 48 hours, after 13 days culture with peptide 1 μg/ml and IL-2
Protocol: as §1, §2, §3, §4

| Substance | IFN-g release (T cells) | ELISPOT IL-4 cell 2 (number of spots) [1] | ELISPOT IL-4 cell 1 (number of spots) [2] |
| --- | --- | --- | --- |
| 15 (LITMDWTWRFLFVVA; listed as Homo sapiens) [compound 15] | Positive |  |  |
| 7 (QDEKGVTQNGRLITA; listed as Homo sapiens) [compound 7] |  | 12 | 6 |
